Laboratory results taken from patent US20130178453A1, “Cannabinoid Agonists” (priority 2010, published 2013).
Like-named read-outs stand apart in the source and are kept apart here.

Columns and labels:
hCB1 = hCB1 (Homo sapiens, UniProt P21554); assay: hCB1 radioligand binding assay ([3H]-CP 55,940 displacement); settings: HEK membranes
Description: (§1) cDNA expression clones for human CB 1 (hCB1, Genbank Accession No. AY225225) and human CB2 (hCB2, Genbank Accession No. AY242132) expressed in vector pcDNA3.1+ were purchased from UMR cDNA Resource Center, Rolla, Mo. (Clone ID CNR01L000 for hCB1; CNR0200000 for hCB2).
Stable, HEK-293-derived cell lines that recombinantly express hCB1 or hCB2 were established. In brief, the clone hCB1 (CNR1L) or hCB2 (CNR2) was transfected into human embryonic kidney cells (HEK-293) using Lipofectamine 2000 (Gibco, Cat#11668-019) according to the manufacturer's protocol. Transfected clones were isolated by single colony purification and clones were screened for receptor expression using a whole cell, ^3H—CP 55,940 radioligand binding assay. HEK-293 stable cells were maintained in Dulbecco's modified Eagles medium (DMEM) containing 10% fetal bovine serum, 2 mM L-glutamine and 0.5 mg/mL G-418.
(§2) Membranes were isolated from transfected cells as follows. Monolayers of cultured cells were washed twice with phosphate-buffered saline (PBS). Cells were scraped into 20 mM HEPES, pH 7.4, 10 mM EDTA containing complete cocktail protease inhibitors (Roche, Catalog #11 697 498 001), and were homogenized by an electric-powered mechanical probe homogenizer (Omni GLH; probe G7-195S) for 40 seconds at 7000 rpm. Homogenates were centrifuged 10 minutes at 1000×g at 4° C. The supernatant was collected and was centrifuged for 1 hour at 40,000×g. The supernatant was then decanted and the resulting pellet was re-suspended in 20 mM HEPES, pH 7.4, 5 mM MgCl2, 1 mM EDTA, 10% sucrose with complete cocktail protease inhibitors. Protein concentration of membrane suspensions were measured by Bradford Protein Assay using bovine serum albumin as the standard (BioRad catalog #500-0006). Protein concentrations of membrane suspensions were adjusted with the final buffer in the range of 5 to 10 mg/mL and were stored at −80° C. until further use.
Radioligand binding assays were performed by incubating membranes (2-10 μg protein) prepared from HEK-293 cells expressing recombinant human cannabinoid receptors, CB 1 or CB2, at room temperature with 0.5 nM cannabinoid receptor agonist, [^3H]-CP 55,940 (Perkin Elmer, catalog #NET 1051) in 0.2 mL of binding buffer (50 mM Tris-HCl, pH 7.5, 5 mM MgCl2, 2.5 mM EDTA) and 0.1% fatty acid free bovine serum albumin (Sigma Cat. #A0821) for 90 minutes. A rapid filtration technique using Millipore FB filter plates (Catalog #MADVNOB) and filtration apparatus (Millipore system Catalog MAVM0960R) with vacuum aspiration was used to harvest and rinse labeled membranes (8 times with 0.2 mL of chilled binding buffer). The radioactivity bound to the filters was counted with 0.05 mL of liquid scintillant (UltraGold MV, PerkinElmer catalog #6013159) in a scintillation counter (Perkin Elmer Microbeta instrument). Nonspecific binding was determined in the presence of unlabeled 1 μM CP 55,940 (Sigma Aldrich, catalog #C1112). Binding data were analyzed using GraphPad Prism (GraphPad Software, Inc. San Diego, Calif.).

hCB2 [1] = biological target: T1, hCB2 (Homo sapiens, UniProt P34972); assay: hCB2 GTPγS agonist assay (HEK-293 membranes); assay type: biochemical
T1 sequence (P34972 whole entry): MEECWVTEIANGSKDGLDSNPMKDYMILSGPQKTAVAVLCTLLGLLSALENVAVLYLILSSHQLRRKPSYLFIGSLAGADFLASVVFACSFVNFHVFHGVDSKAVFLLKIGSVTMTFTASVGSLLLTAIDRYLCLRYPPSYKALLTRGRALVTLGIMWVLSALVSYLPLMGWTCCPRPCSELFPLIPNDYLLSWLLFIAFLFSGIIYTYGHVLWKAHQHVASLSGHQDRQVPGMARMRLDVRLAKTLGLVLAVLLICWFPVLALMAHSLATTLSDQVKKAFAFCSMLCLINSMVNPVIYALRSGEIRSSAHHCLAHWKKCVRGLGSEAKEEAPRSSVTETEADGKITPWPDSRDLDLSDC
Protocol: as §1
as §2, with “Cells were scraped into 20 mM HEPES, pH 7.4, 10 mM EDTA containing complete cocktail protease inhibitors (Roche, Catalog #11 697 498 001), and were homogenized by an electric-powered mechanical probe homogenizer (Omni GLH; probe G7-195S) for 40 seconds at 7000 rpm.” left out
^35S GTPγS binding assays were performed by incubating recombinant cell membranes prepared above (5 μg) in the presence of scintillation proximity assay beads (SPA beads, Catalog #RPNQ0252 GE Healthcare, Buckinghamshire, England) in GTPγS binding buffer [50 mM HEPES (pH 7.4), 100 mM NaCl, 5 mM MgCl2, 0.001% saponin (Sigma catalog #S4521)] supplemented with 20 uM GDP (Sigma catalog #G7127) in the presence or absence of test compound. The reaction was carried out in 96-well microplates with 0.1 nM [^35S]GTPγS (specific activity=1250 Ci/mmol; Perkin Elmer catalog #NEG030X250UC) in a final volume of 100 μL. After a 90 min room temperature incubation, the reaction was analyzed using a scintillation counter (Perkin Elmer Microbeta instrument). Binding data were analyzed using GraphPad Prism.

hCB2 [2] = biological target: T1, hCB2; assay: hCB2 radioligand binding assay ([3H]-CP 55,940 displacement); settings: HEK membranes
Protocol: as §1
as §2, with “Cells were scraped into 20 mM HEPES, pH 7.4, 10 mM EDTA containing complete cocktail protease inhibitors (Roche, Catalog #11 697 498 001), and were homogenized by an electric-powered mechanical probe homogenizer (Omni GLH; probe G7-195S) for 40 seconds at 7000 rpm.” left out
A rapid filtration technique using Millipore FB filter plates (Catalog #MADVNOB) and filtration apparatus (Millipore system Catalog MAVM0960R) with vacuum aspiration was used to harvest and rinse labeled membranes (8 times with 0.2 mL of chilled binding buffer). […] Binding data were analyzed using GraphPad Prism (GraphPad Software, Inc. San Diego, Calif.).

hCB2 [3] = biological target: T1, hCB2; assay: hCB2 cAMP agonist assay (HEK-293 cells); assay type: cell-based
Protocol: as §1
cAMP assays were performed in HEK-293 cells stably expressing human CB 1 or CB2 receptors. […] Cells suspensions were centrifuged and the cells were washed once with PBS, were centrifuged again, and the cells were resuspended in HBSS (Hank's Balanced Salt Solution, Cellgro, Cat #21-022-CV) solution containing 10 mM HEPES and 0.1% fatty acid free BSA (Sigma, Cat #A0281). Cell suspensions were prepared at 1,500,000 cells per mL. Stock solutions of test substances (10 mM) in DMSO were diluted to 1 mM using 30% DMSO as diluent. Test substances of solutions (1 mM) were further diluted down to 3× of final assay concentrations in the above HBSS buffer containing 0.1% BSA in the presence of 90 uM forskolin (Sigma Cat#F6886). To perform the assay, 20 μL of cell suspension (1,500,000 cells/mL) were added to each well in 96 well plate and treated with 10 μL test substance solution diluted as described above. Cells and compounds were incubated at 37° C. for 30 minutes. Cells were lysed and cAMP concentration was measured using DiscoveRx-XS+ cAMP assay kit (DiscoveRx Corporation Ltd., Fremont, Calif., USA, Cat #90-0075-03), following the manufacturer's protocol. GraphPad Prism software was used to calculate EC50 values using sigmoidal dose response curve fitting. The maximal amount of cAMP produced by forskolin was defined as 100%.

[4] = GTPγS agonist, HEK membranes, read-out: hCB2 EC50 (GTPyS ag, nM, HEK)
[5] = cAMP agonist, HEK, 96-well, read-out: hCB2 EC50 (cAMP ag, nM, HEK (96-well))

hCB1, sequence (P21554 whole entry): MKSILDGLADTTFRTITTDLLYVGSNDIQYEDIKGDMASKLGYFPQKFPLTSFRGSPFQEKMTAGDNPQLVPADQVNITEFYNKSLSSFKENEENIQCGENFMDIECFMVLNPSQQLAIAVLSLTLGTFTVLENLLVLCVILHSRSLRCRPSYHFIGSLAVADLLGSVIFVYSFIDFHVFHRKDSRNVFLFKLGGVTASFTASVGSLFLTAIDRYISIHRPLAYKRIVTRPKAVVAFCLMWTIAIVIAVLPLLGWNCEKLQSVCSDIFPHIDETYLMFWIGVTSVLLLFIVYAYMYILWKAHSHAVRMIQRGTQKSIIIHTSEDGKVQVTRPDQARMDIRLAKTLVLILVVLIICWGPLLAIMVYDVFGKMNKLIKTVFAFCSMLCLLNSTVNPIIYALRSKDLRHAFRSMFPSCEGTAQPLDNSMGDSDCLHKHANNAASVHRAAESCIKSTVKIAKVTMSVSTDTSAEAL

Compound	IC50 (hCB1; hCB1 IC50 (CP displ, nM, HEK)) [nM]	EC50 (hCB2 [1]) [nM]	IC50 (hCB2 [2]; hCB2 IC50 (CP displ, nM, HEK)) [nM]	further results
Cc1c(C(=O)c2cccc3ccccc23)c2sccc2n1CCN1CCOCC1 [Compound I-1]	100 to 1000	< 100	< 100	
CCCn1c(C)c(C(=O)c2cccc3ccccc23)c2ccsc21 [Compound I-2]	1000 to 10000	100 to 1000	100 to 1000	
Cc1[nH]c2sccc2c1C(=O)c1cccc2ccccc12 [Compound I-3]	> 10000	< 100	1000 to 10000	
Cc1[nH]c2ccsc2c1C(=O)c1cccc2ccccc12 [Compound I-4]	> 10000		1000 to 10000	EC50 (hCB2 [1]; [4]): 1000 to 10000 nM
Cc1c(C(=O)c2cccc3ccccc23)c2ccsc2n1CCN1CCOCC1 [Compound I-5]	100 to 1000	< 100	< 100	
CCCn1c(C)c(C(=O)c2c(C)n(CCC)c3sccc23)c2ccccc21 [Compound I-7]	1000 to 10000		100 to 1000	
Cc1c(C(=O)c2cc3ccccc3[nH]2)c2ccsc2n1CCN1CCOCC1 [Compound I-10]	1000 to 10000		100 to 1000	
CCCn1c(C)c(C(=O)c2cccc3ccccc23)c2sccc21 [Compound I-12]	1000 to 10000	< 100	100 to 1000	
CCCn1c(C(=O)c2c(C)[nH]c3sccc23)cc2ccccc21 [Compound I-13]				IC50 (hCB1; read-out: hCB1 IC50 (CP displ, nM, HEK)): > 10000 nM; IC50 (hCB2 [2]; read-out: hCB2 IC50 (CP displ, nM, HEK)): > 10000 nM
CCn1c(C(=O)c2c(C)n(CCCCl)c3ccccc23)cc2ccsc21 [Compound I-18]	100 to 1000	< 100	< 100	EC50 (hCB2 [3]): < 100 nM
CCCn1c(C)c(C(=O)c2cc3sccc3s2)c2ccccc21 [Compound I-20]	1000 to 10000	100 to 1000	1000 to 10000	EC50 (hCB2 [3]): 100 to 1000 nM
C=Cn1c(C)c(C(=O)c2cc3ccsc3n2CC)c2ccccc21 [Compound I-24]			100 to 1000	hCB1 IC50 (CP displ, nM, HEK) (hCB1): B/C; EC50 (hCB2 [1]; [4]): 100 to 1000 nM; EC50 (hCB2 [3]; [5]): < 100 nM
CCn1c(C(=O)c2c(C)n(CCC(=O)O)c3ccccc23)cc2ccsc21 [Compound I-27, 3-(3-(6-ethyl-6H-thieno[2,3-b]pyrrole-5-carbonyl)-2-methyl-1H-indol-1-yl)propanoic acid]	> 10000		100 to 1000	EC50 (hCB2 [3]; [5]): 100 to 1000 nM
CCCn1c(C)c(C(=O)c2cc3ccsc3n2CCC)c2c1CCC(C)(C)C2 [Compound I-35]	100 to 1000		< 100	EC50 (hCB2 [1]; [4]): < 100 nM; EC50 (hCB2 [3]; [5]): < 100 nM
CCn1c(C(=O)c2c[nH]c3ccccc23)cc2ccsc21 [Compound I-37]	> 10000		100 to 1000	EC50 (hCB2 [1]; [4]): 100 to 1000 nM; EC50 (hCB2 [3]; [5]): < 100 nM
CCCn1c(C(=O)c2c[nH]c3ncccc23)cc2ccsc21 [Compound I-43]	> 10000		1000 to 10000	EC50 (hCB2 [1]; [4]): 100 to 1000 nM
CCCn1c(C)c(C(=O)c2cc3ccsc3s2)c2ccccc21 [Compound I-46]	1000 to 10000	100 to 1000	100 to 1000	EC50 (hCB2 [3]): 100 to 1000 nM
CCCn1c(C)c(C(=O)c2cc3cc(Cl)sc3[nH]2)c2ccccc21 [Compound I-48]	1000 to 10000	100 to 1000	100 to 1000	EC50 (hCB2 [3]): 100 to 1000 nM
CCCn1c(C(=O)c2c(C)n(CC)c3ccccc23)cc2ccsc21 [Compound I-50]	1000 to 10000	< 100	< 100	EC50 (hCB2 [3]): < 100 nM
CCCn1c(C)c(C(=O)c2cc3ccsc3n2CCC)c2cc(Cl)ccc21 [Compound I-52]	1000 to 10000	100 to 1000	100 to 1000	EC50 (hCB2 [3]): 100 to 1000 nM
CCCn1c(C)c(C(=O)c2cc3ccsc3n2CCC)c2cc(OC)ccc21 [Compound I-61]	100 to 1000		< 100	EC50 (hCB2 [3]): 100 to 1000 nM
CCCn1c(C)c(C(=O)c2cc3cc(C)n(CCC)c3s2)c2ccccc21 [Compound I-63]			100 to 1000	
CCCn1c(C)c(C(=O)c2cc3occc3[nH]2)c2ccccc21 [Compound I-71]	> 10000		1000 to 10000	
CCCn1c(C)c(C(=O)c2cc3cc(C)[nH]c3s2)c2ccccc21 [Compound I-75]	> 10000		1000 to 10000	
